Key:
[1] = test system: recombinant NL4-3 virus (Renilla luciferase in nef); assay: HIV cell culture assay (antiviral activity, luciferase readout in MT-2 cells); assay type: cell-based; conditions: Renilla, NL43
Method: HIV cell culture assay—MT=2 cells, 293T cells and the proviral DNA clone of NL4-3 virus were obtained from the NIH AIDS Research and Reference Reagent Program. MT=2 cells were propagated in RPMI 1640 media supplemented with 10% heat inactivated fetal bovine serum (FBS), […] penicillin G and up to 100 units/mL streptomycin. The 293T cells were propagated in DMEM media supplemented with 10% heat inactivated FBS, […] penicillin G and […] streptomycin. A recombinant NL4-3 proviral clone, in which a section of the nef gene was replaced with the Renilla luciferase gene, was used to make the reference virus used in these studies. The recombinant virus was prepared through transfection of the recombinant NL4-3 proviral clone into 293T cells using Transit-293 Transfection Reagent from Mirus Bio LLC (Madison, Wis.). Supernatent was harvested after 2-3 days and the amount of virus present was titered in MT=2 cells using luciferase enzyme activity as a marker by measuring luciferase enzyme activity. Luciferase was quantitated using the EnduRen Live Cell Substrate from Promega (Madison, Wis.). Antiviral activities of compounds toward the recombinant virus were quantified by measuring luciferase activity in MT=2 cells infected for 4-5 days with the recombinant virus in the presence of serial dilutions of the compound.
The 50% effective concentration (EC50) was calculated by using the exponential form of the median effect equation where (Fa)=1/[1+(ED50/drug conc.)m] (Johnson V A, Byington R T. Infectivity Assay. In Techniques in HIV Research. ed. Aldovini A, Walker B D. 71-76. New York: Stockton Press. 1990). The 50% inhibitory concentration (EC50) was calculated by using the exponential form of the median effect equation where percent inhibition=1/[1+(EC50/drug concentration)m], where m is a parameter that reflects the slope of the concentration-response curve.

[2] = Compound cytotoxicity, XTT-based colorimetric assay; assay type: cell-based; conditions: human; uninfected MT2 cells, day 4, XTT
Method: Compound cytotoxicity and the corresponding CC50 values were determined using the same protocol as described in the antiviral assay except that uninfected cells were used. Cytotoxicity was assessed on day 4 in uninfected MT2 cells by using an XTT (2,3-bis[2-Methoxy-4-nitro-5-sulfophenyl]-2H-tetrazolium-5-carboxyanilide inner salt)-based colorimetric assay (Sigma-Aldrich, St Louis, Mo.).

Row | Compound | EC50 [1] | CC50 at 4 days [2]
1 | Cn1nc(NS(C)(=O)=O)c2c(Cl)ccc(-n3c([C@H](Cc4cc(F)cc(F)c4)NC(=O)Cn4nc(C(F)F)c5c4C(F)(F)[C@@H]4C[C@H]54)nc4cc(-c5nccnc5C(F)(F)F)ccc4c3=O)c21 (atropisomer, axis not shown; (P)) [Example 23, N—((S)-1-((3P)-3-(4-chloro-1-methyl-3-(methylsulfonamido)-1H-indazol-7-yl)-4-oxo-7-(3-(trifluoromethyl)pyrazin-2-yl)-3,4-dihydroquinazolin-2-yl)-2-(3,5-difluorophenyl)ethyl)-2-((3bS,4aR)-3-(difluoromethyl)-5,5-difluoro-3b,4,4a,5-tetrahydro-1H-cyclopropa[3,4]cyclopenta[1,2-c]pyrazol-1-yl)acetamide] | 0.071 nM | > 100 nM
2 | Cn1nc(NS(C)(=O)=O)c2c(Cl)ccc(-n3c([C@H](Cc4cc(F)cc(F)c4)NC(=O)Cn4nc(C(F)F)c5c4C(F)(F)[C@@H]4C[C@H]54)nc4cc(-c5ncc(F)cn5)ccc4c3=O)c21 (atropisomer, axis not shown; (P)) [Example 24, N—((S)-1-((3P)-3-(4-chloro-1-methyl-3-(methylsulfonamido)-1H-indazol-7-yl)-7-(5-fluoropyrimidin-2-yl)-4-oxo-3,4-dihydroquinazolin-2-yl)-2-(3,5-difluorophenyl)ethyl)-2-((3bS,4aR)-3-(difluoromethyl)-5,5-difluoro-3b,4,4a,5-tetrahydro-1H-cyclopropa[3,4]cyclopenta[1,2-c]pyrazol-1-yl)acetamide] | 0.045 nM | > 100 nM
3 | Cn1nc(NS(C)(=O)=O)c2c(Cl)ccc(-n3c([C@H](Cc4cc(F)cc(F)c4)NC(=O)Cn4nc(C(F)F)c5c4C(F)(F)[C@@H]4C[C@H]54)nc4cc(-c5cc(C(F)(F)F)ncn5)ccc4c3=O)c21 (atropisomer, axis not shown; (P)) [Example 25, N—((S)-1-((3P)-3-(4-chloro-1-methyl-3-(methylsulfonamido)-1H-indazol-7-yl)-4-oxo-7-(6-(trifluoromethyl)pyrimidin-4-yl)-3,4-dihydroquinazolin-2-yl)-2-(3,5-difluorophenyl)ethyl)-2-((3bS,4aR)-3-(difluoromethyl)-5,5-difluoro-3b,4,4a,5-tetrahydro-1H-cyclopropa[3,4]cyclopenta[1,2-c]pyrazol-1-yl)acetamide] | 0.083 nM | > 100 nM
4 | Cc1cc(-c2ccc3c(=O)n(-c4ccc(Cl)c5c(NS(C)(=O)=O)nn(C)c45)c([C@H](Cc4cc(F)cc(F)c4)NC(=O)Cn4nc(C(F)F)c5c4C(F)(F)[C@@H]4C[C@H]54)nc3c2)nc(C(F)(F)F)n1 (atropisomer, axis not shown; (P)) [Example 26, N—((S)-1-((3P)-3-(4-chloro-1-methyl-3-(methylsulfonamido)-1H-indazol-7-yl)-7-(6-methyl-2-(trifluoromethyl)pyrimidin-4-yl)-4-oxo-3,4-dihydroquinazolin-2-yl)-2-(3,5-difluorophenyl)ethyl)-2-((3bS,4aR)-3-(difluoromethyl)-5,5-difluoro-3b,4,4a,5-tetrahydro-1H-cyclopropa[3,4]cyclopenta[1,2-c]pyrazol-1-yl)acetamide] | 0.087 nM | > 100 nM
5 | Cn1nc(NS(C)(=O)=O)c2c(Cl)ccc(-n3c([C@H](Cc4cc(F)cc(F)c4)NC(=O)Cn4nc(C(F)F)c5c4C(F)(F)[C@@H]4C[C@H]54)nc4cc(-c5ccnc(C(F)(F)F)n5)ccc4c3=O)c21 (atropisomer, axis not shown; (P)) [Example 27, N—((S)-1-((3P)-3-(4-chloro-1-methyl-3-(methylsulfonamido)-1H-indazol-7-yl)-4-oxo-7-(2-(trifluoromethyl)pyrimidin-4-yl)-3,4-dihydroquinazolin-2-yl)-2-(3,5-difluorophenyl)ethyl)-2-((3bS,4aR)-3-(difluoromethyl)-5,5-difluoro-3b,4,4a,5-tetrahydro-1H-cyclopropa[3,4]cyclopenta[1,2-c]pyrazol-1-yl)acetamide] | 0.066 nM | > 100 nM
